Experimental data from publication PMC10150366, “Discovery of an In Vivo Chemical Probe for BCL6 Inhibition by Optimization of Tricyclic Quinolinones” (Journal of Medicinal Chemistry, 2023).
pEC50, pIC50: −log10 of the molar value.

How the values were obtained:
ADORA2A = ADORA2A (Homo sapiens, UniProt P29274); assay: SAFETYscan Calcium Flux ADORA2A Agonist; type: cell-based
Description: (§1) Supplement jm3c00155_si_002.xlsx, sheet "SAFETYScan" | column: RC50 (uM); Max Response

GABAA [1] = molecular target: T1, GABAA (Homo sapiens, UniProt P14867+P18507+P47870); assay: SAFETYscan Ion Channel GABAA Blocker; type: cell-based
T1 sequence (P14867 28-456): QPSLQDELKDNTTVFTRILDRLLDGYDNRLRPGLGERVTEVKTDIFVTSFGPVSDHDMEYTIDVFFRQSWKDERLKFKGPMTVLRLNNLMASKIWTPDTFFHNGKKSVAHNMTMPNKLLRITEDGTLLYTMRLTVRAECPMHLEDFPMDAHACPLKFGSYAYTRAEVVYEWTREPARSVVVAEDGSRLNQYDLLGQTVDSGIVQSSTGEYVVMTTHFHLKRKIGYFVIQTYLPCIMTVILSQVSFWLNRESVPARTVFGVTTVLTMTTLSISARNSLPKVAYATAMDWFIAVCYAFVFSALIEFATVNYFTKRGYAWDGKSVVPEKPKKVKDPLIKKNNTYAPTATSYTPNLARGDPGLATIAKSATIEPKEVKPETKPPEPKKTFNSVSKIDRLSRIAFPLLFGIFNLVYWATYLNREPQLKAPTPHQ
T1 sequence (P47870 26-512): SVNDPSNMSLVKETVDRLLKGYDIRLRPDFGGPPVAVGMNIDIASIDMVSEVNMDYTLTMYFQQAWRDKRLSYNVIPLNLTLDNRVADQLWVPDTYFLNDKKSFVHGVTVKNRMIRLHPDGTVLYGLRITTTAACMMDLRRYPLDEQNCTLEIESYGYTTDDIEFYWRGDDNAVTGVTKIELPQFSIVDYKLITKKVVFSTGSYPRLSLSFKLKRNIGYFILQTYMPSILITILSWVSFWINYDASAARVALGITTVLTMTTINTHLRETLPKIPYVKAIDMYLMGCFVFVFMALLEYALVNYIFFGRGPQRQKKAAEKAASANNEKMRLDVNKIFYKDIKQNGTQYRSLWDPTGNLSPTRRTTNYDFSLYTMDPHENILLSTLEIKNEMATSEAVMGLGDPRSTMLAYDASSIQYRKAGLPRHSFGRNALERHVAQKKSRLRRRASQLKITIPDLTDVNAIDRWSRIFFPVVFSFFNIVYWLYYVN
T1 sequence (P18507 40-475): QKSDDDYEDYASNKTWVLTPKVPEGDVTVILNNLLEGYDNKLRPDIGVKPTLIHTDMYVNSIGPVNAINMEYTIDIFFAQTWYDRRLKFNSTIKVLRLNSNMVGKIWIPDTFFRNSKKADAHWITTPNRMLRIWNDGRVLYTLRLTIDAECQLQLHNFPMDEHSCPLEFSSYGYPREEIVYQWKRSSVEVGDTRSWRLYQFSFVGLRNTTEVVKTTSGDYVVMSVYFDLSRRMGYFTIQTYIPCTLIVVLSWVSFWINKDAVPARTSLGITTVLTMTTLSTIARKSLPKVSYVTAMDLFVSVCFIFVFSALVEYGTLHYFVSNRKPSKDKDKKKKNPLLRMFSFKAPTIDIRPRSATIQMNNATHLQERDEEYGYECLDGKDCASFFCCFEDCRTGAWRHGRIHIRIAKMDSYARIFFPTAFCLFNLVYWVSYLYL
Description: as §1

GABAA [2] = molecular target: T1, GABAA; assay: SAFETYscan Ion Channel GABAA Opener; type: cell-based
Description: as §1

ADRB1 = ADRB1 (Homo sapiens, UniProt P08588); assay: SAFETYscan cAMP ADRB1 Agonist; type: cell-based
Chain of ADRB1 (P08588 whole entry): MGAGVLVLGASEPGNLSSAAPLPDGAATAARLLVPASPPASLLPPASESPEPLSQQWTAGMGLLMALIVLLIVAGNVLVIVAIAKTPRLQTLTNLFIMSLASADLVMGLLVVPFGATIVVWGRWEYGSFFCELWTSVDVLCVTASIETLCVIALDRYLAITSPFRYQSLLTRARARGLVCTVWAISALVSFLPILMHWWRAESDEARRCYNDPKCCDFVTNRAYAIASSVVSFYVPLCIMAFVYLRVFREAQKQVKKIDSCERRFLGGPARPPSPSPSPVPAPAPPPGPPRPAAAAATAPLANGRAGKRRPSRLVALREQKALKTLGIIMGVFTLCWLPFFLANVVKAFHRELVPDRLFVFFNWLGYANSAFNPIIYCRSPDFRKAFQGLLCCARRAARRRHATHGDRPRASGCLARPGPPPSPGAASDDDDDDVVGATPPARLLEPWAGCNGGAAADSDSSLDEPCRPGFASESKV
Description: as §1

EDNRA = molecular target: T2, EDNRA (Homo sapiens, UniProt P25101); assay: SAFETYscan Calcium Flux EDNRA Agonist; type: cell-based
T2 sequence (P25101 21-427): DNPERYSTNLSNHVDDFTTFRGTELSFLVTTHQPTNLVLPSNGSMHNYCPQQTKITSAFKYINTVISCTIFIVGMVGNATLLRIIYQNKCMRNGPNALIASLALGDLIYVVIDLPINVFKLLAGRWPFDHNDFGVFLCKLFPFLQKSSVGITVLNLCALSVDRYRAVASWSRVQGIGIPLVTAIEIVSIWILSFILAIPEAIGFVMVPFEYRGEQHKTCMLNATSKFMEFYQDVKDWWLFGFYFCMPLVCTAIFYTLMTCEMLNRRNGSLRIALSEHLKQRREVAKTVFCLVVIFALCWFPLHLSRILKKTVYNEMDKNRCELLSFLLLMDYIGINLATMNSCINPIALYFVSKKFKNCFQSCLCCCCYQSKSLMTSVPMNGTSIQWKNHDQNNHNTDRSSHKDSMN
Description: as §1

OPRD1 = OPRD1 (Homo sapiens, UniProt P41143); assay: SAFETYscan cAMP OPRD1 Agonist; type: cell-based
Chain of OPRD1 (P41143 whole entry): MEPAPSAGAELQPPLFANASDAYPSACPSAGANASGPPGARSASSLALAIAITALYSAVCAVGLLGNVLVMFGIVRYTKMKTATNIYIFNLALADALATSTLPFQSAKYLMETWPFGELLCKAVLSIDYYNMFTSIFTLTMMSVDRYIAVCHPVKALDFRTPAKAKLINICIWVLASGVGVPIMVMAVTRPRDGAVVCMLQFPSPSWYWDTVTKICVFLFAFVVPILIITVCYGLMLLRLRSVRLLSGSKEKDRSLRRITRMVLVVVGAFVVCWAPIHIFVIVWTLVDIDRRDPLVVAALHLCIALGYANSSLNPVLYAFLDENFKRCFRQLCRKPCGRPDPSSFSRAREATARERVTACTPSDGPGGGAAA
Description: as §1

HT = assay: 14-day cell proliferation assay, HT; type: cell-based; settings: Homo sapiens, 14-day assay
Description: (§2) DMSO final concentration.
(§3) After a short centrifugation the
(§4) (1st emission filter) / 450-80 nm (2nd emission filter). The % inhibition at each test concentration was […]
(§5) sigmoidal four-parameter logistic fit equation.
(§6) 2.3 Cell proliferation assay
(§7) Aldrich) supplemented with 10% FBS (Gibco). Compounds were initially dispensed into 96-well U-bottom […]
(§8) transferred onto the cells.
(§9) Assay plates containing cells
(§10) (Beckman Coulter). The volume of medium containing 2500 cells in the control well was calculated and this volume of cells was transferred from every well of the assay plates to the corresponding well of the fresh plates containing compound. After 14 days, CellTiter Glo reagent (Promega) was added to the medium in each well of the assay plate at a ratio of 1:2, mixed on a plate shaker, then incubated at room temperature for 10 minutes. Luminescence was measured using an Envision plate reader (Perkin Elmer) and the relative luminescence at each compound concentration, compared to DMSO alone, was calculated. GI50 were determined using a 4-parameter curve fit in Dotmatics (Bishops Stortford, UK).

ADRB2 = ADRB2 (Homo sapiens, UniProt P07550); assay: SAFETYscan cAMP ADRB2 Antagonist; type: cell-based
Chain of ADRB2 (P07550 whole entry): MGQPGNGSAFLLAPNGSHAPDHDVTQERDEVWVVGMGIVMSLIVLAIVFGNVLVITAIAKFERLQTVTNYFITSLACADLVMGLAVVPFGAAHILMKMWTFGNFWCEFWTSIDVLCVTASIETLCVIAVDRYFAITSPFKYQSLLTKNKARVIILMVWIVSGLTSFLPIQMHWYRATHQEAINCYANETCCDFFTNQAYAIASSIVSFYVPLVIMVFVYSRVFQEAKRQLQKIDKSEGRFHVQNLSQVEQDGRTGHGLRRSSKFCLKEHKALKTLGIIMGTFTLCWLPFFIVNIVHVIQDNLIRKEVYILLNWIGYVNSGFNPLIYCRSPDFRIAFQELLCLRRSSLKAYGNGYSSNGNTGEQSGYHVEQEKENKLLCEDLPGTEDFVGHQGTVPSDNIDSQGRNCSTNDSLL
Description: Supplement jm3c00155_si_002.xlsx, sheet "SAFETYScan" | column: RC50 (uM); Hill; Max Response

CCKAR = molecular target: T3, CCKAR (Homo sapiens, UniProt P32238); assay: SAFETYscan Calcium Flux CCKAR Agonist; type: cell-based
T3 sequence (P32238 1-428): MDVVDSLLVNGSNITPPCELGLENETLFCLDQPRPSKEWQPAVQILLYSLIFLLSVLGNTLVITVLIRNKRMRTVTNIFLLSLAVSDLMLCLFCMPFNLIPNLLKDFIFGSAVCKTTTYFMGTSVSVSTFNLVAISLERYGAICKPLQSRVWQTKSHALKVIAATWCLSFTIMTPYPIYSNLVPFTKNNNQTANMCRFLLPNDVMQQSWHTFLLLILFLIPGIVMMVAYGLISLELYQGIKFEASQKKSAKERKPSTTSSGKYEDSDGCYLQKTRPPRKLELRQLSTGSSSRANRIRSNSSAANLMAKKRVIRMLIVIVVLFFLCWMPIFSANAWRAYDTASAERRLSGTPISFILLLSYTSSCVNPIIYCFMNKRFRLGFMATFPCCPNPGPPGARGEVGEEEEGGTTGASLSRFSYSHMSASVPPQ
Description: as §1

SU-DHL-4 = assay: 14-day cell proliferation assay, SU-DHL-4; type: cell-based; settings: Homo sapiens, 14-day assay
Description: as §2, §3, §4, §5, §6, §7, §8, §9, §10

DRD2S = DRD2S (Homo sapiens, UniProt P14416); assay: SAFETYscan cAMP DRD2S Antagonist; type: cell-based
Description: as §1

HTR1B = HTR1B (Homo sapiens, UniProt P28222); assay: SAFETYscan cAMP HTR1B Antagonist; type: cell-based
Description: as §1

NMDAR (1A/2B) = NMDAR (1A/2B) (Homo sapiens, UniProt Q05586+Q13224); assay: SAFETYscan Ion Channel NMDAR (1A/2B) Opener; type: cell-based
Chain of NMDAR (1A/2B) (Q13224 27-1484, other chains not shown): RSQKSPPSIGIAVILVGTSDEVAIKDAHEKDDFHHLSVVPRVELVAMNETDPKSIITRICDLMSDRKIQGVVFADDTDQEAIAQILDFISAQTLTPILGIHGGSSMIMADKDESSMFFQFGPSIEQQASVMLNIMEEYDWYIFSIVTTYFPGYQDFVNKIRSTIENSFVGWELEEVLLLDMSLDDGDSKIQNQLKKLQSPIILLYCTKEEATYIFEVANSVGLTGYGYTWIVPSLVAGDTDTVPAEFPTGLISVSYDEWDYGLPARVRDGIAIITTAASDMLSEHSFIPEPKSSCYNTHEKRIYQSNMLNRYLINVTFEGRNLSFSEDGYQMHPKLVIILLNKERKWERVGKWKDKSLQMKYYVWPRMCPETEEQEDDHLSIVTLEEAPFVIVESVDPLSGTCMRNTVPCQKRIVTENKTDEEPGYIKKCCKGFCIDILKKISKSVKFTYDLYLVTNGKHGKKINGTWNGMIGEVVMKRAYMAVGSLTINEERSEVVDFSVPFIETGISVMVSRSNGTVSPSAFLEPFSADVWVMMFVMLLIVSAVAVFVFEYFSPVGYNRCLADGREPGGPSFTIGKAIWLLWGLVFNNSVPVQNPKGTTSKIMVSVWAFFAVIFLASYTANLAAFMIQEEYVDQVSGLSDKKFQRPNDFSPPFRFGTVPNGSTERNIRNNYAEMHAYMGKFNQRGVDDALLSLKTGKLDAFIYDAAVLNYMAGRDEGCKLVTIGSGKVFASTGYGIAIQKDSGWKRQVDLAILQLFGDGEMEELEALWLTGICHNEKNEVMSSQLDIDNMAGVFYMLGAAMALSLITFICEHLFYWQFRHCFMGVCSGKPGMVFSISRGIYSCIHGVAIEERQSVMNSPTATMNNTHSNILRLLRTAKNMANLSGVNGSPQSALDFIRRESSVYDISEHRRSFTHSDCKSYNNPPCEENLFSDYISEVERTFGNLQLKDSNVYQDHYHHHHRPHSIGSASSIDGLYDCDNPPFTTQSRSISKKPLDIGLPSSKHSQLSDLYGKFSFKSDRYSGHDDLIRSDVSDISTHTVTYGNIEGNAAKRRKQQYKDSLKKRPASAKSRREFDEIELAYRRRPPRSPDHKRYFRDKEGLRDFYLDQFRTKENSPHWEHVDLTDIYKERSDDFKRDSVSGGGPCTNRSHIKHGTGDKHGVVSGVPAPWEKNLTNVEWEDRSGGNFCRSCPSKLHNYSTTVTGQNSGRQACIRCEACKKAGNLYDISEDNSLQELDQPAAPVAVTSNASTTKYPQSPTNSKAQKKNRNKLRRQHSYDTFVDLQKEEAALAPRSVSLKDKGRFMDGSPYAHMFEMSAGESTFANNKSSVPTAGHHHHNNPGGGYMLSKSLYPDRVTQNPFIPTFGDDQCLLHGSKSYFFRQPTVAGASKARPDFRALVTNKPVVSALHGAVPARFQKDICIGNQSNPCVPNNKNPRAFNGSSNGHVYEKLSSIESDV
Description: as §1

HRH1 = HRH1 (Homo sapiens, UniProt P35367); assay: SAFETYscan Calcium Flux HRH1 Antagonist; type: cell-based
Chain of HRH1 (P35367 whole entry): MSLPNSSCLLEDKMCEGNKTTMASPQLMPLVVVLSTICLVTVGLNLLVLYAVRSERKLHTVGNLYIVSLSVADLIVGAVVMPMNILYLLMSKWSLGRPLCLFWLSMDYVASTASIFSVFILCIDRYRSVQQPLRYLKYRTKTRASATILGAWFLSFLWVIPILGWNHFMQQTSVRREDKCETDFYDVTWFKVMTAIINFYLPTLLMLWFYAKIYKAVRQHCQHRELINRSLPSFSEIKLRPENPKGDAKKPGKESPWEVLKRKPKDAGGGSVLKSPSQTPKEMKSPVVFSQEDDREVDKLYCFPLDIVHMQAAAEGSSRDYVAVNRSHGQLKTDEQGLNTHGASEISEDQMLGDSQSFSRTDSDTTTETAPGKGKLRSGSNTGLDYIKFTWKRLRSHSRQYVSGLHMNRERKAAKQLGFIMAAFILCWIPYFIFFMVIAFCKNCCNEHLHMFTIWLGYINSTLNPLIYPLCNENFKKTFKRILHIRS
Description: as §1

ROCK1 = ROCK1 (Homo sapiens, UniProt Q13464); assay: SAFETYscan Kinases Binding ROCK1 Inhibitor
Description: as §1

Chain of ADORA2A (P29274 whole entry): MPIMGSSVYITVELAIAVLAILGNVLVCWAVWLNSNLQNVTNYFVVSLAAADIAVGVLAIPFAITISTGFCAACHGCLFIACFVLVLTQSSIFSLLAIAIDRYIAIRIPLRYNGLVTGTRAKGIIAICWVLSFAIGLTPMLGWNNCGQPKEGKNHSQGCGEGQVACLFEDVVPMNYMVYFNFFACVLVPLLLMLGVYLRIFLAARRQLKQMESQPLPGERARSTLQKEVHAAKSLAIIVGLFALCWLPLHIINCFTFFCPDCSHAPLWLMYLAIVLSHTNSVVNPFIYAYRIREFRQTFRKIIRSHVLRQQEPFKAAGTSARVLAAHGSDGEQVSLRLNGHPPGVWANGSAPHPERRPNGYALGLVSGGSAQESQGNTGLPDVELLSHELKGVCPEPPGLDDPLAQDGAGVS

Cn1c(=O)c2c(c3cc(Nc4ccnc(F)c4Cl)ccc31)N[C@@H](C1CC1)C(F)(F)CO2 [compound 17, (S)-10-((3-chloro-2-fluoropyridin-4-yl)amino)-2-cyclopropyl-3,3-difluoro-7-methyl-1,2,3,4-tetrahydro-[1,4]oxazepino[2,3-c]quinolin-6(7H)-one]
Emax (ADORA2A; read-out: Max Response): 0% | pEC50 (ADORA2A; read-out: RC50 (EC50)): < 5.00 | pIC50 (GABAA [1]): < 5.00 | Emax (GABAA [1]; GABAA, Ion Channel, Blocker, read-out: Max Response): 0% | pEC50 (GABAA [2]): < 5.00 | Emax (GABAA [2]; GABAA, Ion Channel, Opener, read-out: Max Response): 1.24% | Emax (ADRB1; read-out: Max Response): 0% | pEC50 (ADRB1; read-out: RC50 (EC50)): < 5.00 | Emax (EDNRA; read-out: Max Response): 0% | pEC50 (EDNRA; read-out: RC50 (EC50)): < 5.00 | pEC50 (OPRD1): < 5.00 | Emax (OPRD1; OPRD1, cAMP, Agonist, read-out: Max Response): 23.6% | GI50 (HT): 0.545 µM | Hill (ADRB2): 1.29 | Emax (ADRB2; read-out: Max Response): 89% | pIC50 (ADRB2; read-out: RC50 (IC50)): 5.75 | Emax (CCKAR; read-out: Max Response): 0.06% | pEC50 (CCKAR; read-out: RC50 (EC50)): < 5.00 | GI50 (SU-DHL-4): 1.38 µM | pIC50 (DRD2S): < 5.00 | Emax (DRD2S; DRD2S, cAMP, Antagonist, read-out: Max Response): 0% | pIC50 (HTR1B): < 5.00 | Emax (HTR1B; HTR1B, cAMP, Antagonist, read-out: Max Response): 0% | pEC50 (NMDAR (1A/2B)): < 5.00 | Emax (NMDAR (1A/2B); NMDAR (1A/2B), Ion Channel, Opener, read-out: Max Response): 0.2% | Emax (HRH1; read-out: Max Response): 14.2% | pIC50 (HRH1; read-out: RC50 (IC50)): < 5.00 | Emax (ROCK1; read-out: Max Response): 0% | pIC50 (ROCK1; read-out: RC50 (IC50)): < 5.00
